Tests used:
Conditions in all cases: Compound concentration 1.0 uM
[1] = molecular target: Cysteinyl leukotriene receptor 1 (Homo sapiens) (UniProt Q9Y271); assay: RLU of CYSLTR1 at 1.0 µM in the […] PRESTO-Tango GPCRome screen
[2] = molecular target: Gonadotropin-releasing hormone receptor (Homo sapiens) (UniProt P30968); assay: RLU of GNRHR at 1.0 µM in the […] PRESTO-Tango GPCRome screen
[3] = molecular target: Retinoic acid-induced protein 3 (Homo sapiens) (UniProt Q8NFJ5); assay: RLU of GPRC5A at 1.0 µM in the […] PRESTO-Tango GPCRome screen
[4] = molecular target: Beta-3 adrenergic receptor (Homo sapiens) (UniProt P13945); assay: RLU of ADRB3 at 1.0 µM in the […] PRESTO-Tango GPCRome screen
[5] = molecular target: Thyrotropin receptor (Homo sapiens) (UniProt P16473); assay: RLU of TSHR at 1.0 µM in the […] PRESTO-Tango GPCRome screen
[6] = molecular target: Melanocyte-stimulating hormone receptor (Homo sapiens) (UniProt Q01726); assay: RLU of MC1R at 1.0 µM in the […] PRESTO-Tango GPCRome screen
[7] = molecular target: Trace amine-associated receptor 5 (Homo sapiens) (UniProt O14804); assay: RLU of TAAR5 at 1.0 µM in the […] PRESTO-Tango GPCRome screen
[8] = molecular target: C-X-C chemokine receptor type 1 (Homo sapiens) (UniProt P25024); assay: RLU of CXCR1 at 1.0 µM in the […] PRESTO-Tango GPCRome screen
[9] = molecular target: Beta-2 adrenergic receptor (Homo sapiens) (UniProt P07550); assay: RLU of ADRB2 at 1.0 µM in the […] PRESTO-Tango GPCRome screen
[10] = molecular target: G-protein coupled receptor 3 (Homo sapiens) (UniProt P46089); assay: RLU of GPR3 at 1.0 µM in the […] PRESTO-Tango GPCRome screen
[11] = molecular target: Probable G-protein coupled receptor 141 (Homo sapiens) (UniProt Q7Z602); assay: RLU of GPR141 at 1.0 µM in the […] PRESTO-Tango GPCRome screen
[12] = molecular target: Cholecystokinin receptor type A (Homo sapiens) (UniProt P32238); assay: RLU of CCKAR at 1.0 µM in the […] PRESTO-Tango GPCRome screen
[13] = molecular target: G-protein coupled receptor 135 (Homo sapiens) (UniProt Q8IZ08); assay: RLU of GPR135 at 1.0 µM in the […] PRESTO-Tango GPCRome screen
[14] = molecular target: Gamma-aminobutyric acid type B receptor subunit 1 (Homo sapiens) (UniProt Q9UBS5); assay: RLU of GABBR1 at 1.0 µM in the […] PRESTO-Tango GPCRome screen
[15] = molecular target: Substance-P receptor (Homo sapiens) (UniProt P25103); assay: RLU of TACR1 at 1.0 µM in the […] PRESTO-Tango GPCRome screen
[16] = molecular target: C-C chemokine receptor-like 2 (Homo sapiens) (UniProt O00421); assay: RLU of CCRL2 at 1.0 µM in the […] PRESTO-Tango GPCRome screen
[17] = molecular target: Neurotensin receptor type 1 (Homo sapiens) (UniProt P30989); assay: RLU of NTSR1 at 1.0 µM in the […] PRESTO-Tango GPCRome screen
[18] = molecular target: Vasopressin V2 receptor (Homo sapiens) (UniProt P30518); assay: RLU of AVPR2 at 1.0 µM in the […] PRESTO-Tango GPCRome screen
[19] = molecular target: Adhesion G protein-coupled receptor F5 (Homo sapiens) (UniProt Q8IZF2); assay: RLU of GPR116 at 1.0 µM in the […] PRESTO-Tango GPCRome screen
[20] = molecular target: G-protein coupled receptor 157 (Homo sapiens) (UniProt Q5UAW9); assay: RLU of GPR157 at 1.0 µM in the […] PRESTO-Tango GPCRome screen
[21] = molecular target: Metabotropic glycine receptor (Homo sapiens) (UniProt Q5T848); assay: RLU of GPR158 at 1.0 µM in the […] PRESTO-Tango GPCRome screen
[22] = molecular target: Relaxin receptor 2 (Homo sapiens) (UniProt Q8WXD0); assay: RLU of RXFP2 at 1.0 µM in the […] PRESTO-Tango GPCRome screen
[23] = molecular target: Probable G-protein coupled receptor 21 (Homo sapiens) (UniProt Q99679); assay: RLU of GPR21 at 1.0 µM in the […] PRESTO-Tango GPCRome screen
[24] = molecular target: C-X-C chemokine receptor type 4 (Homo sapiens) (UniProt P61073); assay: RLU of CXCR4 at 1.0 µM in the […] PRESTO-Tango GPCRome screen
[25] = molecular target: Proteinase-activated receptor 3 (Homo sapiens) (UniProt O00254); assay: RLU of F2RL2 at 1.0 µM in the […] PRESTO-Tango GPCRome screen
[26] = test system: Pyroglutamylated RFamide peptide receptor (Homo sapiens); assay: RLU of QRFP at 1.0 µM in the […] PRESTO-Tango GPCRome screen
[27] = molecular target: 5-hydroxytryptamine receptor 1B (Homo sapiens) (UniProt P28222); assay: RLU of HTR1B at 1.0 µM in the Aequorin PRESTO-Tango GPCRome screen
[28] = molecular target: Alpha-1B adrenergic receptor (Homo sapiens) (UniProt P35368); assay: RLU of ADRA1B at 1.0 µM in the […] PRESTO-Tango GPCRome screen
[29] = molecular target: Adenosine receptor A1 (Homo sapiens) (UniProt P30542); assay: RLU of ADORA1 at 1.0 µM in the […] PRESTO-Tango GPCRome screen
[30] = molecular target: G-protein coupled receptor 84 (Homo sapiens) (UniProt Q9NQS5); assay: RLU of GPR84 at 1.0 µM in the […] PRESTO-Tango GPCRome screen
[31] = molecular target: Metabotropic glutamate receptor 8 (Homo sapiens) (UniProt O00222); assay: RLU of GRM8 at 1.0 µM in the Aequorin PRESTO-Tango GPCRome screen
[32] = molecular target: Muscarinic acetylcholine receptor M3 (Homo sapiens) (UniProt P20309); assay: RLU of CHRM3 at 1.0 µM in the […] PRESTO-Tango GPCRome screen
[33] = molecular target: Adhesion G-protein coupled receptor F3 (Homo sapiens) (UniProt Q8IZF5); assay: RLU of GPR113 at 1.0 µM in the […] PRESTO-Tango GPCRome screen
[34] = molecular target: Pituitary adenylate cyclase-activating polypeptide type I receptor (Homo sapiens) (UniProt P41586); assay: RLU of ADCYAP1R1 at 1.0 µM in the […] PRESTO-Tango GPCRome screen
[35] = molecular target: C-C chemokine receptor type 6 (Homo sapiens) (UniProt P51684); assay: RLU of CCR6 at 1.0 µM in the […] PRESTO-Tango GPCRome screen
Sequence of C-C chemokine receptor type 6 (Homo sapiens) (P51684 whole entry): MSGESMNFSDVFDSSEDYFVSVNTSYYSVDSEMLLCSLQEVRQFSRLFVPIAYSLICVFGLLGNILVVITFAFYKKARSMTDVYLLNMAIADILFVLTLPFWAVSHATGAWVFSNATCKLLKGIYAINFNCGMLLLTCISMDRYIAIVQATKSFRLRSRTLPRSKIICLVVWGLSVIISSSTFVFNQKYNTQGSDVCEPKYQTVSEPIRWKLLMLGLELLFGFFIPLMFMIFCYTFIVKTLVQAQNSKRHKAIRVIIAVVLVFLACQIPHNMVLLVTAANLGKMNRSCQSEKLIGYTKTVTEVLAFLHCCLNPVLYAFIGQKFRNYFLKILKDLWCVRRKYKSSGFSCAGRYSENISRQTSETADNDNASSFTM

Sequence of Melanocyte-stimulating hormone receptor (Homo sapiens) (Q01726 whole entry, looked up): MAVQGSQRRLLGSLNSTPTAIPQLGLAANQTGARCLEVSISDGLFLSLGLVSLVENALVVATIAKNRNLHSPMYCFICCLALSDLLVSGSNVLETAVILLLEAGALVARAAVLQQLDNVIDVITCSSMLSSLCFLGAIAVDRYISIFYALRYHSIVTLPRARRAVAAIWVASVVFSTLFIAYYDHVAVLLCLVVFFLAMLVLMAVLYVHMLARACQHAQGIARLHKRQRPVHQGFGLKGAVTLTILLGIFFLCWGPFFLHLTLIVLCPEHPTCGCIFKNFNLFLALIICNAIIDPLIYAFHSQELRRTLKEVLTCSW
Sequence of C-C chemokine receptor-like 2 (Homo sapiens) (O00421 whole entry): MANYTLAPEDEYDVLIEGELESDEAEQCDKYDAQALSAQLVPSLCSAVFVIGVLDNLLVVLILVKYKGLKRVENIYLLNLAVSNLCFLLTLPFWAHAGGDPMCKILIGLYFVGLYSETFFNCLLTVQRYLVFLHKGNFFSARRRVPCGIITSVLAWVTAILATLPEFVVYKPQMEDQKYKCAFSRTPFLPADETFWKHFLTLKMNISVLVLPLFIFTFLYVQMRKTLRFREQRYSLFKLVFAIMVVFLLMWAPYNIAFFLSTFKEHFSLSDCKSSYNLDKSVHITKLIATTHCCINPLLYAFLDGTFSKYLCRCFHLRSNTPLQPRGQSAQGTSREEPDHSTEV
Sequence of Beta-2 adrenergic receptor (Homo sapiens) (P07550 whole entry, looked up): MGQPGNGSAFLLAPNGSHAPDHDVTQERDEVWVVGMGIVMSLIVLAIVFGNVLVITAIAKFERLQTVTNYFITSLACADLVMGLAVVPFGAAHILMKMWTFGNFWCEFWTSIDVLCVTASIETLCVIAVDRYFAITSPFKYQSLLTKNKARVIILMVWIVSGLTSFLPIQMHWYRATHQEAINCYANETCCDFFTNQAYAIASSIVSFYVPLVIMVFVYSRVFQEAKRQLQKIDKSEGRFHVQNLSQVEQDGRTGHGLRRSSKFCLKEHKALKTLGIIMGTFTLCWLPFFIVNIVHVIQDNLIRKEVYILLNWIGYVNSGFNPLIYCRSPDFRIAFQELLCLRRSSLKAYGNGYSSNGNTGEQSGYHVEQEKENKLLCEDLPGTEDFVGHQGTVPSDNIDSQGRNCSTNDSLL
Sequence of Relaxin receptor 2 (Homo sapiens) (Q8WXD0 whole entry): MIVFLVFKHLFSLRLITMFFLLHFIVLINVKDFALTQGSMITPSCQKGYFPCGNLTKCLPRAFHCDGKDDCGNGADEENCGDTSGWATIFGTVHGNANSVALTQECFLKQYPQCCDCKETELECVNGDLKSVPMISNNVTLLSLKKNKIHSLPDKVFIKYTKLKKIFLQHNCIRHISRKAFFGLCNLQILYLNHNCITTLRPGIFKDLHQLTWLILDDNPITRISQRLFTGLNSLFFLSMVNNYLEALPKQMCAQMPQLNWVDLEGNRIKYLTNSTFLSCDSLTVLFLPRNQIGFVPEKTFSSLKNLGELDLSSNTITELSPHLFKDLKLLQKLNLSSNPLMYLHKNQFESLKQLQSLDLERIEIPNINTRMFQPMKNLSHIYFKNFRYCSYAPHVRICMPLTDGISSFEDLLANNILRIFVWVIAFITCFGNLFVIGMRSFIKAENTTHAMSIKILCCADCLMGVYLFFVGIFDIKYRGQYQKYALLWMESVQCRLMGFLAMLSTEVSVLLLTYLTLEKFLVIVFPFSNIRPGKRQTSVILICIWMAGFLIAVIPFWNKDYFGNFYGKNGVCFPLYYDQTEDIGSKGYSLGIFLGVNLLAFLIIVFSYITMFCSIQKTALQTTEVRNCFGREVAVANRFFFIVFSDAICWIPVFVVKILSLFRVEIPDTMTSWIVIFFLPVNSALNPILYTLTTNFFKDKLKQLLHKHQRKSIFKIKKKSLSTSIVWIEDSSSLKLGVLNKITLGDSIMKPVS
Sequence of Alpha-1B adrenergic receptor (Homo sapiens) (P35368 whole entry): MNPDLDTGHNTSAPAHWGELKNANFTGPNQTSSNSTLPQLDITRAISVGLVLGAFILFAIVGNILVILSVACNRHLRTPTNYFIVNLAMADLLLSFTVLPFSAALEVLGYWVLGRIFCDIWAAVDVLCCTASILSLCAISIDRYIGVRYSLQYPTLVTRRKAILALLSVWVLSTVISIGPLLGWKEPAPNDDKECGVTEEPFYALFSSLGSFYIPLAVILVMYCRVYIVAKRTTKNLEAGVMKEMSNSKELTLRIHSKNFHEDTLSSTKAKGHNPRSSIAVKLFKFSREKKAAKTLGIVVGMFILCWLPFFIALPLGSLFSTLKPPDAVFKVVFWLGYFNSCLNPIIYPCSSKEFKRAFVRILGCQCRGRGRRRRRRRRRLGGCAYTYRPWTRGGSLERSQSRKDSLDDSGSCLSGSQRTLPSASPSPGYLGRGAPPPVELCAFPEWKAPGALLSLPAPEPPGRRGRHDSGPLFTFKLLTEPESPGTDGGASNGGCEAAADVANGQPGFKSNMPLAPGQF
Sequence of Adenosine receptor A1 (Homo sapiens) (P30542 whole entry): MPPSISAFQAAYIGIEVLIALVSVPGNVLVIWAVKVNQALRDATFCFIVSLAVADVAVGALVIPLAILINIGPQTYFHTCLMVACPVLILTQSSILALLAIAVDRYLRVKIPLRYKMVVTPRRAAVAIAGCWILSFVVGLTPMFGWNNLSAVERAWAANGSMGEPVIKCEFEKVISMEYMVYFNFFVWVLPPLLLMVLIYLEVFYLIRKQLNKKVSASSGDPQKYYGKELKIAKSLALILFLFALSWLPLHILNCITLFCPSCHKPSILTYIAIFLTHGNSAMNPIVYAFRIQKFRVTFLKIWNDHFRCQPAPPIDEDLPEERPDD
Sequence of Beta-3 adrenergic receptor (Homo sapiens) (P13945 whole entry, looked up): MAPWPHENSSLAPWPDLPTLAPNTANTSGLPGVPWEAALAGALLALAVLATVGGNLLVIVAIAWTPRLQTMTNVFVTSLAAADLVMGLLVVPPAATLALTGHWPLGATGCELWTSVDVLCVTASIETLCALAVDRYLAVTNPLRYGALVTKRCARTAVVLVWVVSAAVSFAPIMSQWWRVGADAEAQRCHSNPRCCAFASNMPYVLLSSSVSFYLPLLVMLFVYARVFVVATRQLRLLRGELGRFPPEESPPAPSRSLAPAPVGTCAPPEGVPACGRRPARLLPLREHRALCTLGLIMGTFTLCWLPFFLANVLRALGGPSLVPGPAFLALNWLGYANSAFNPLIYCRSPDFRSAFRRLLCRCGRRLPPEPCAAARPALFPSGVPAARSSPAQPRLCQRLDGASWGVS
Sequence of Neurotensin receptor type 1 (Homo sapiens) (P30989 whole entry): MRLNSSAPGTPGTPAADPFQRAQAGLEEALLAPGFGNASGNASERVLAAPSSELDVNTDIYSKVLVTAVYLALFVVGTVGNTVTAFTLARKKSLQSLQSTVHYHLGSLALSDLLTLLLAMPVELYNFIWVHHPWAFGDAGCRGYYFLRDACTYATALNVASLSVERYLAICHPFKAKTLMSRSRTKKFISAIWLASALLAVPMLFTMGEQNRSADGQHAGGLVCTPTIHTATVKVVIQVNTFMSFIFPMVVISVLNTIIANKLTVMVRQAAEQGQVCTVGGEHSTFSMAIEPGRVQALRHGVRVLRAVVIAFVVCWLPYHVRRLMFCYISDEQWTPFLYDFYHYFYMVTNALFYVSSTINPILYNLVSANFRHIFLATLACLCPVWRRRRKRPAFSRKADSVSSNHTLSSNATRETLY
Sequence of Gonadotropin-releasing hormone receptor (Homo sapiens) (P30968 whole entry): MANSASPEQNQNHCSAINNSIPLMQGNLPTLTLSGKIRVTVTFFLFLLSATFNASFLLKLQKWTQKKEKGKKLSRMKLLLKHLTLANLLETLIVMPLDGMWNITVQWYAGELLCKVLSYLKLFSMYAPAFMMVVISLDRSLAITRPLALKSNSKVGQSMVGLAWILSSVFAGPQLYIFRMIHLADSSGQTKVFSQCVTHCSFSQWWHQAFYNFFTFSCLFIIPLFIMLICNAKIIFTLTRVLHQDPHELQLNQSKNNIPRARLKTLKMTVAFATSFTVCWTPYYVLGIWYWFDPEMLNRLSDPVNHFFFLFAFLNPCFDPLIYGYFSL
Sequence of Probable G-protein coupled receptor 141 (Homo sapiens) (Q7Z602 whole entry): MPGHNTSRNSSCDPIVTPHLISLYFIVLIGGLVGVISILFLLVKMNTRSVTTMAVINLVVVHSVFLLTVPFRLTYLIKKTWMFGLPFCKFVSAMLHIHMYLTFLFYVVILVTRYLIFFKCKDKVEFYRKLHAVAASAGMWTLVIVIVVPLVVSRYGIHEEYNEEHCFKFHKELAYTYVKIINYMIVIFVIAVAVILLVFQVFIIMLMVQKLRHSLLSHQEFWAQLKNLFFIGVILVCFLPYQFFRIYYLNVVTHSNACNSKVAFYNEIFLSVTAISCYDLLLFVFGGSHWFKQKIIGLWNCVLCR
Sequence of G-protein coupled receptor 3 (Homo sapiens) (P46089 whole entry): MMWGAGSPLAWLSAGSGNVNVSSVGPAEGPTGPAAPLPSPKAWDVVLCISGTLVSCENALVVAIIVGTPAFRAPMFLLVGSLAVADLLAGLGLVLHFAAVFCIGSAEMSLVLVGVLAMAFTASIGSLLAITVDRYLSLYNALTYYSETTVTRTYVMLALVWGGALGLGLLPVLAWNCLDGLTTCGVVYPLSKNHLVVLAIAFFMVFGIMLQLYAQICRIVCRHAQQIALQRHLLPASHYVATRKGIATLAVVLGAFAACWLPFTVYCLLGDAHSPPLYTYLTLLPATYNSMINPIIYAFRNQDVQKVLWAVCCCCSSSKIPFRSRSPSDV

`CCCCC(=O)N1CC2(C1)CN(c1ccccc1-c1nnn[nH]1)C2` showed an RLU [1] of 1610, an RLU [2] of -3090 and an RLU [3] of 3570. The RLU [4] was 12400, the RLU [5] was -406 and the RLU [6] was -1890. For the same compound, the RLU [7] was 821, the RLU [8] was 812 and the RLU [9] was 4580. The RLU [10] was -1780, the RLU [11] was 2790 and the RLU [12] was 2840. The RLU [13] was 2860, the RLU [14] was 3390 and the RLU [15] was -4720. It also gave an RLU [16] of -1900, an RLU [17] of -1300 and an RLU [18] of 2870. For the same compound, the RLU [19] was -663, the RLU [20] was -4180 and the RLU [21] was 1540. For the same compound, the RLU [22] was -900, the RLU [23] was -483 and the RLU [24] was -831. It also gave an RLU [25] of 463, an RLU [26] of -577 and an RLU [27] of 77.2. It also gave an RLU [28] of -2730, an RLU [29] of 6200 and an RLU [30] of -3990. For the same compound, the RLU [31] was -4060, the RLU [32] was 6260 and the RLU [33] was 387. The RLU [34] was 1630 and the RLU [35] was -2060.

— ChEMBL document CHEMBL5723582, “Data for DCP probe T-10430” (2024)
